The results in this text go back to patent US20220396565A1 (Hoffmann-La Roche Inc., priority 2020, published 2022).

In experiment [1] the test system is Acinetobacter baumannii ATCC17978. Briefly: Antimicrobial susceptibility testing: 90% growth inhibitory concentration (IC90) determination, Iso-Sensitest broth. The class given is cell-based. The essentials:
(§1)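 Twofold serial dilutions (e.g. 10 to 0.02 μM final) were tested in Iso-Sensitest broth against ~5×10^(5) CFU/ml at 35±2 °C. OD600 was read every 20 min over 16 h. IC90 was derived from growth inhibition during the logarithmic phase.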

Experiment [2] concerns Acinetobacter baumannii ATCC17961. The experiment is described as above. The class given is cell-based. Conditions: Acinetobacter baumannii, ATCC17961, 90% growth inhibitory concentration, Acinetobacter baumannii ATCC17961, Iso-Sensitest broth; read-out: ATCC 17961 IC90. The essentials:
as §1

Setting [3] is: 90% growth inhibitory concentration, Acinetobacter baumannii ATCC17978, Iso-Sensitest broth, read-out: ATCC 17978 IC90.

The structures appear in SMILES notation. Structures can show the parent of a compound that is named as a salt. Where two headings read alike, the source gives them in different places.

Regarding `Cc1cc(NC(=O)c2ncc(-c3ccc(OCC#N)c(F)c3F)n2C)ccc1C(=O)N1CCC(C(=O)N2CC(N)C2)CC1` [Example 79, N-(4-(4-(3-aminoazetidine-1-carbonyl)piperidine-l-carbonyl)-3-methylphenyl)-5-(4-(cyanomethoxy)-2,3-difluorophenyl)-1-methyl-1H-imidazole-2-carboxamide 2,2,2-trifluoroacetate], the IC90 in experiment [1] (Acinetobacter baumannii, ATCC17978, read-out: ATCC 17978 IC90) was found to be 210 nM. Turning to `CCc1cc(NC(=O)c2ncc(-c3ccc(OC(C)C)c(F)c3)n2C)ccc1C(=O)N1CCN(CCN(C)C)CC1` [Example 276, N-(4-(4-(2-(dimethylamino)ethyl)piperazine-1-carbonyl)-3-ethylphenyl)-5-(3-fluoro-4-isopropoxyphenyl)-1-methyl-1H-imidazole-2-carboxamide], the IC90 in experiment [1] (setting [3]) was found to be 4020 nM. For `COc1ccc(-c2cnc(C(=O)Nc3ccc(C(=O)N4CCN(C(=O)C5(O)CCNCC5)CC4)c(Cl)c3)n2C)c(Cl)c1F` [Example 113, 5-(2-chloro-3-fluoro-4-methoxy-phenyl)-N-[3-chloro-4-[4-(4-hydroxypiperidine-4-carbonyl)piperazine-1-carbonyl]phenyl]-1-methyl-imidazole-2-carboxamide formate], the IC90 in experiment [1] (setting [3]) is 80 nM. Consider `COc1ccc(-c2cnc(C(=O)Nc3ccc(C(=O)N4CCC(CN)CC4)c(Cl)c3)n2C)c(F)c1F` [Example 16, N-[4-[4-(aminomethyl)piperidine-1-carbonyl]-3-chloro-phenyl]-5-(2,3-difluoro-4-methoxy-phenyl)-1-methyl-imidazole-2-carboxamide trifluoroacetate], for which, in experiment [1] (setting [3]), the IC90 is 300 nM. The same measure, in the same setting: under `COc1ccc(-c2cnc(C(=O)Nc3ccc(C(=O)N4CCN(C(=O)[C@H]5C[C@@H](O)CN5)CC4)c(Cl)c3)n2C)c(Cl)c1F` [Example 115, 5-(2-chloro-3-fluoro-4-methoxy-phenyl)-N-[3-chloro-4-[4-[(2R,4R)-4-hydroxypyrrolidine-2-carbonyl]piperazine-1-carbonyl]phenyl]-1-methyl-imidazole-2-carboxamide formate] stands 140 nM.

Take `COc1ccc(-c2cnc(C(=O)Nc3ccc(C(=O)N4CCN(C(=O)[C@@H]5C[C@H](O)CN5)CC4)c(Cl)c3)n2C)c(F)c1F` [Example 107, N-[3-chloro-4-[4-[(2S,4S)-4-hydroxypyrrolidine-2-carbonyl]piperazine-1-carbonyl]phenyl]-5-(2,3-difluoro-4-methoxy-phenyl)-1-methyl-imidazole-2-carboxamide trifluoroacetate]: the IC90 in experiment [1] (setting [3]) came out at 80 nM. Turning to `Cc1cc(NC(=O)c2ncc(-c3ccc(OCC#N)c(F)c3F)n2C)ccc1C(=O)N1CCC(C(=O)N2CCS(=O)(=O)CC2)CC1` [Example 77, 5-(4-(cyanomethoxy)-2,3-difluorophenyl)-N-(4-(4-(1,1-dioxidothiomorpholine-4-carbonyl)piperidine-1-carbonyl)-3-methylphenyl)-1-methyl-1H-imidazole-2-carboxamide], the IC90 in experiment [1] (setting [3]) came out at 170 nM. Turning to `Cn1c(-c2ccc(OCC#N)c(F)c2F)cnc1C(=O)Nc1ccc(C(=O)N2CCC(C(=O)N3CCS(=O)(=O)CC3)CC2)c(Cl)c1` [Example 75, N-(3-chloro-4-(4-(1,1-dioxidothiomorpholine-4-carbonyl)piperidine-1-carbonyl)phenyl)-5-(4-(cyanomethoxy)-2,3-difluorophenyl)-1-methyl-1H-imidazole-2-carboxamide], the IC90 in experiment [1] (setting [3]) is 100 nM. The same measure, in the same setting: under `Cn1c(-c2ccc(OCC#N)c(F)c2F)cnc1C(=O)Nc1ccc(C(=O)N2CCN(C(=O)C3(O)CCNCC3)CC2)c(Cl)c1` [Example 207, N-(3-chloro-4-(4-(4-hydroxypiperidine-4-carbonyl)piperazine-1-carbonyl)phenyl)-5-(4-(cyanomethoxy)-2,3-difluorophenyl)-1-methyl-1H-imidazole-2-carboxamide 2,2,2-trifluoroacetate] stands 50 nM; under `Cn1c(-c2ccc(OCC#N)c(F)c2F)cnc1C(=O)Nc1ccc(C(=O)N2CCN(C(=O)[C@@H]3C[C@H](O)CN3)CC2)c(Cl)c1` [Example 201, N-(3-chloro-4-(4-((2S,4S)-4-hydroxypyrrolidine-2-carbonyl)piperazine-1-carbonyl)phenyl)-5-(4-(cyanomethoxy)-2,3-difluorophenyl)-1-methyl-1H-imidazole-2-carboxamide formate], 50 nM. On the same count and under the same terms, under `Cn1c(-c2ccc(OCC#N)c(F)c2F)cnc1C(=O)Nc1ccc(C(=O)N2CCN(C(=O)[C@@H]3C[C@@H](O)CN3)CC2)c(Cl)c1` [Example 202, N-(3-chloro-4-(4-((2S,4R)-4-hydroxypyrrolidine-2-carbonyl)piperazine-1-carbonyl)phenyl)-5-(4-(cyanomethoxy)-2,3-difluorophenyl)-1-methyl-1H-imidazole-2-carboxamide 2,2,2-trifluoroacetate] stands 90 nM. With `COc1ccc(-c2cnc(C(=O)Nc3ccc(C(=O)N4CC(NC(=O)C5CC(CN)C5)C4)c(Cl)c3)n2C)c(F)c1F` (centres unmarked) [Example 218, N-(4-(3-(3-(aminomethyl)cyclobutane-1-carboxamido)azetidine-1-carbonyl)-3-chlorophenyl)-5-(2,3-difluoro-4-methoxyphenyl)-1-methyl-1H-imidazole-2-carboxamide 2,2,2-trifluoroacetate], the IC90 in experiment [2] was found to be 90 nM. With `Cn1c(-c2ccc(OCC#N)c(F)c2F)cnc1C(=O)Nc1ccc(C(=O)N2CCN(C(=O)CN3CC[C@@H](C(=O)O)C3)CC2)c(Cl)c1` [Example 215, (R)-1-(2-(4-(2-chloro-4-(5-(4-(cyanomethoxy)-2,3-difluorophenyl)-1-methyl-1H-imidazole-2-carboxamido)benzoyl)piperazin-1-yl)-2-oxoethyl)pyrrolidine-3-carboxylic acid 2,2,2-trifluoroacetic acid], the IC90 in experiment [2] came to 800 nM.

`Cn1c(-c2ccc(OCF)c(F)c2F)cnc1C(=O)Nc1ccc(C(=O)N2CCN(C(=O)C[C@@H]3CCCN3)CC2)c(Cl)c1` [Example 157, N-[3-chloro-4-[4-[2-[(2S)-pyrrolidin-2-yl]acetyl]piperazine-1-carbonyl]phenyl]-5-[2,3-difluoro-4-(fluoromethoxy)phenyl]-1-methyl-imidazole-2-carboxamide formate]: in experiment [2], the IC90 amounted to 30 nM.

Turning to `COc1ccc(-c2cnc(C(=O)Nc3ccc(C(=O)N4CCN(C(=O)[C@H]5C[C@H](N)C5)CC4)c(Cl)c3)n2C)c(F)c1F` [Example 137, N-[4-[4-(3-aminocyclobutanecarbonyl)piperazine-1-carbonyl]-3-chloro-phenyl]-5-(2,3-difluoro-4-methoxy-phenyl)-1-methyl-imidazole-2-carboxamide formate], the IC90 in experiment [2] amounted to 40 nM. Still for that read-out and setting: under `COc1ccc(-c2cnc(C(=O)Nc3ccc(C(=O)N4CCC(C(=O)N5CCN[C@@H](CO)C5)CC4)c(Cl)c3)n2C)c(F)c1F` [Example 30, N-[3-chloro-4-[4-[(3R)-3-(hydroxymethyl)piperazine-1-carbonyl]piperidine-1-carbonyl]phenyl]-5-(2,3-difluoro-4-methoxy-phenyl)-1-methyl-imidazole-2-carboxamide] stands 170 nM.

In the case of `COc1ccc(-c2cnc(C(=O)Nc3ccc(C(=O)N4CCN(C(=O)CC5CCNC5)CC4)c(Cl)c3)n2C)c(F)c1F` (centres unmarked) [Example 151, N-[3-chloro-4-[4-(2-pyrrolidin-3-ylacetyl)piperazine-1-carbonyl]phenyl]-5-(2,3-difluoro-4-methoxy-phenyl)-1-methyl-imidazole-2-carboxamide formate], the IC90 in experiment [2] turned out to be 40 nM.
